We go through two substances from patent US11391739B2, “Compositions and methods for treating multiple myeloma” (DANA-FARBER CANCER INSTITUTE, INC., priority 2014, dated 2022).

Holding throughout (assay type): cell-based, human
Assay [1] deals with H929 and MM1S cells. Nature of the assay: Proliferation of MM cells ([3H]TdR incorporation). As to the method:
Cell proliferation was evaluated by [^3H]TdR incorporation as described in Mani et al., Cancer Res. 69: 7577-7586 (2009). When proliferation of MM cells was determined in the presence of HS5 or BMEC-60 cells, the latter were previously gamma-irradiated (10,000 rads) and dispensed into 96-well plates. Then, MM1S and H929 cells were co-cultured with either BMEC-60 cells, CM alone, CyPA, or CyPB for 72 hrs. Viability of MM1s-Luc cells were co-cultured with BMEC-60 cells and then treated with drugs as described was assessed, using the tumor cell-specific in vitro bioluminescence imaging (SS-BLI).

For a further assay, the system named is MM1S-luc cells. As to the kind of experiment: Transwell migration assay of MM1S-luc cells. As to the method: For cell migration assays, the top chamber of transwell plates ([…], Corning Costar) was seeded with 2×10^5 MM1S-luc cells, and the bottom chamber was seeded with either medium (0.1% FBS) alone, BMEC-60 cells, BMEC-60 cell-conditioned medium, or plain medium containing CyPA and/or CD147. After 12 hrs of incubation, MM1S-luc cells that had migrated to the bottom chamber were collected and quantified by Xenogen Imaging. Migration of RPMI, U266, CLL, LPL, or primary tumor cells was evaluated by counting the number of unlabeled cells in the lower chamber. Each experiment was done in triplicate and repeated twice. Recombinant HPLC-purified eCyPA was purchased from BioMart Inc. and eCyPB (PPIB) human recombinant protein was purchased from Abnova. In most instances, 50 ng/ml of eCyPA or eCyPB diluted in serum-free RPMI medium was used. CM was collected from confluent cultures of BMEC-60 cells incubated for 48 hours. When needed, the CM was treated with 100 μ/ml proteinase K (19133, Qiagen) for 2 hrs and then deactivated for 15 min at 70° C. Anti-CD147 (UM-8D6) antibody and monoclonal mouse IgG1 (MOPC31C) were obtained from Ancell; anti-CXCR4 (MAB171) was from R&D systems. Migration data were normalized using the data obtained with medium alone. Results are means.±SD for triplicate assays.

In assay [2] the test system is H929, OPM2, RPMI and primary MM cells. As to the kind of experiment: Transwell migration assay of other MM cell lines and primary MM cells. The settings on record: 50 ng/ml recombinant protein. On the procedure: FIG. 12. (FIG. 12A) CyPA immunostains in two different NBM, kidney, liver, and lymph node biopsies from healthy subjects. (FIG. 12B) Serum levels of eCyPA in 10 BM aspirates from MGUS and MM patients. (FIG. 12C) Transwell migration assay of MM1S-luc cells incubated in the absence of serum (Medium) or BM serum from two different MM patients with low (PT #4) and high (PT #12) levels of eCyPA (same as FIG. 4I). Migration data was normalized based on data of medium alone. (FIG. 12D) Transwell migration assay of H929, OPM2 and RPMI cells incubated with medium alone or in the presence of 50 ng/ml of recombinant eCyPA. (FIG. 12E) Transwell migration assay of two MM primary tumors (MMPT #1 and MMPT #2) incubated with medium alone or 50 ng/ml of recombinant eCyPA or BMEC-60 cells.
For cell migration assays, the top chamber of transwell plates ([…], Corning Costar) was seeded with 2×10^5 MM1S-luc cells, and the bottom chamber was seeded with either medium (0.1% FBS) alone, BMEC-60 cells, BMEC-60 cell-conditioned medium, or plain medium containing CyPA and/or CD147. After 12 hrs of incubation, MM1S-luc cells that had migrated to the bottom chamber were collected and quantified by Xenogen Imaging. Migration of RPMI, U266, CLL, LPL, or primary tumor cells was evaluated by counting the number of unlabeled cells in the lower chamber. […]

In a further assay the test system is CLL and LPL cells. Nature of the assay: Transwell migration assay of CLL and LPL cells. The following applies: 50 ng/ml recombinant eCyPA. From the text:
FIG. 16. (FIG. 16A) Representative immunostains (top, n=10) and flow cytometric (bottom, n=6) analysis of CD147 expression in BM samples from CLL patients. (FIG. 16B) Representative immunostains (top, n=10) and flow cytometric (bottom, n=6) analysis of CD147 expression in BM samples from LPL patients. (FIG. 16C) Flow cytometry of CD147 (red line) and control isotype (black line) expression in one CLL cell line (HG3) and one primary tumor patient cells (CLLPT #1). (FIG. 16D) Flow cytometry of CD147 (red line) and control isotype (black line) expression in one LPL cell line (BCWM.1) and one primary tumor patient cells (LPLPT #1). […] Migration of primary CLL and LPL tumor patient cells was evaluated in four different samples for each tumor type. […] Unlabeled cell lines and primary tumors were used, and migration was evaluated by counting cells in the bottom chamber. […]
For cell migration assays, the top chamber of transwell plates ([…], Corning Costar) was seeded with 2×10^5 MM1S-luc cells, and the bottom chamber was seeded with either medium (0.1% FBS) alone, BMEC-60 cells, BMEC-60 cell-conditioned medium, or plain medium containing CyPA and/or CD147. After 12 hrs of incubation, MM1S-luc cells that had migrated to the bottom chamber were collected and quantified by Xenogen Imaging. […]

In assay [3] the test system is H929 and MM1S cells. As to the kind of experiment: Immunoblot analysis of total protein extracts from MM cells. On the procedure:
Total protein samples were prepared from non-attached H929 and MM1S cells grown in CM from cultures of BMEC-60 or BMEC-1 cells attached for 72 hr. In some experiments, the cells were co-cultured with BMEC-60 cells using transwell chambers (Corning Costar, 0.45 µm pore diameter). Immunoblotting was performed as described in Takada et al., Sci. Transl. Med. 4, 148ra117 (2012). When MM1S and H929 cells were treated with eCyPA or CD147 Ab, they were first incubated with eCyPA or CD147 Ab for 5 hrs in serum-free medium. Then 0.5% serum was added, and incubation was resumed for another 72 hrs before performing protein preparation. Anti-human primary antibodies included: BCL9 (2D4, Abnova), CyPA (ERPR7511, Abcam), CD147 (#13287, Cell Signaling), pSTAT3 (#9131, Cell Signaling), pERK (#4370, Cell Signaling), PARP (#9542, Cell Signaling), pAKT (#9271, Cell Signaling), Active-β-catenin (05-665, Millipore), Factor VIII (A0082, DAKO), MMP-9 (MAB911, R&D), CyPB (MAB5410, R&D), and horseradish peroxidase (HRP)-conjugated actin (C-11, Santa Cruz). Actin Ab was used as a loading control. Secondary antibodies included: anti-rabbit IgG (HRP)-conjugated (W402b, Promega), and anti-mouse IgG (HRP)-conjugated (W401b, Promega). Protein concentrations were measured in triplicate by Bradford assay (BioRad). Optimal antibody concentrations were used according to the manufacturer's recomendations.
(In general: A western blot detects proteins with antibodies after separation by electrophoresis.)

In the case of “CyPB: eCyPB (PPIB) human recombinant protein purchased from Abnova”, the “proliferation of MM cells” value in the assay with H929 and MM1S cells [1] (tested at much higher concentrations than those in BM serum of MM patients) is listed as “induces proliferation”. In addition, in the assay on MM1S-luc cells (50 ng/ml each), the “migration of MM1S-luc cells, CyPB compared with CyPA” value was “Major differences were likewise not observed”.

Consider “eCyPA: Recombinant HPLC-purified eCyPA (extracellular cyclophilin A) purchased from BioMart Inc.”, for which, in assay [2], the “migration of other MM cell lines (H929, OPM2, RPMI)” value was “induced migration” and the “migration of primary MM cells” value is given as “induced migration”. The “proliferation of H929 and MM1S cells” value in the assay with H929 and MM1S cells [1] (concentration-dependent) is listed as “enhanced”. For the same substance, in the assay on MM1S-luc cells (MM1S-luc cells), the “concentration giving maximal migration response” value was determined as 50 ng/mL and the “lowest concentration inducing significant migration” value turned out to be 6 ng/mL. Moreover, the “migration of MM cells incubated with BMEC-1 transduced with CyPA-shRNAs” value in the assay with MM1S-luc cells (addition of 50 ng/ml recombinant eCyPA) is “restored migration”. In the assay on MM1S-luc cells (purified recombinant protein, time- and concentration-dependent), the “migration of MM1S-luc cells” value is “promoted migration”. In addition, in the assay on CLL and LPL cells, the “migration of CLL cells” value is “enhanced migration” and the “migration of LPL cells” value is “enhanced migration”. Moreover, in the assay on H929 and MM1S cells [3] (50 ng/ml eCyPA vs without), the “signaling pathways (Wnt/β-catenin, STAT3, AKT, ERK) in MM cells” value is on record as “activation of several signaling pathways”. In the assay on H929 and MM1S cells [3] (CyPA-treated), the “higher-glycosylated form of CD147 in MM cells” value was “increased”. Besides, the “expression of matrix metalloprotease 9 (MMP-9)” value with H929 and MM1S cells [3] (cells treated with eCyPA) is “increased”. The “CD147 expression in MM cells” value in the assay with H929 and MM1S cells [3] (concentration-dependent and time-dependent) is “dramatically increased”.
